Results as given in US6368529B1, “Lignocellulosic composite” (U.S. Borax Inc., priority 2000, dated 2002).

What was measured:
[1] = Borate content of composite after two weeks water leaching; assay type: physicochemical; conditions: leached two weeks
Experimental: (§1) The panels to be leached (4.5″×4.5″) were edge sealed with an epoxy sealant and leached for two weeks. Leaching began with pressure treatment of the specimens with water for 30 minutes under vacuum and one hour under pressure. The specimens were removed from the pressure treatment chamber and the residual water was changed after two hours, then daily for the remainder of the leaching period. Afterward, they were trimmed to remove the sealed edges and cut into analytical/soil block test samples. Unleached and leached analytical/soil block samples for each board type were separately randomized. Fifteen were analyzed for borate content and ten were retained for the soil block decay test.

[2] = Bulk solids flow testing, J. R. Johanson Indicizer System; assay type: physicochemical; conditions: for Hopper Index Stainless Steel / Chute Index Stainless Steel: 304-2B Stainless Steel; for Hopper Index Stainless Steel / Hopper Index Plastic / Hopper Index Carbon Steel: maximum angle from the vertical, larger is better; for Chute Index Stainless Steel / Chute Index Plastic / Chute Index Carbon Steel: minimum angle from horizontal, smaller is better; for Hopper Index Plastic / Chute Index Plastic: Tivar UHMWPE plastic; for Hopper Index Carbon Steel / Chute Index Carbon Steel: aged carbon steel; for Arching Index / Ratholing Index: multiple of the discharge opening, less than 1 necessary for free flow, average of 3-6 tests
Text: Bulk solids flow testing was done using the J. R. Johanson Indicizer System, including a Hang-up Indicizer and Hopper Indicizer, manufactured by J R Johanson, Inc. 712 Fiero Lane #37, San Luis Obispo, Calif. 93401. The test procedures are described in detail in their company literature (BULK SOLIDS INDICES TESTING, Hang-up Indicizer™ Instruction Manual ©JR Johanson, Inc. 1991 and BULK SOLIDS INDICES TESTING, Hopper Indicizer™ Instruction Manual ©JR Johanson, Inc. 1991). The results are presented in the following Table 3 as the Arching Index, Ratholing Index, Hopper Index and Chute Index, which are the average of several tests (3-6). The meaning and usefulness of these flow indices in evaluating the flow properties of bulk solids are also described in literature from JR Johanson, Inc., including Binside Scoop™, Vol. 7, No. 2, Fall 1994, Binside Scoop™, Vol. 8, No. 3, Winter 1995, and “Bulk solids Flow Indices—A Simplified Evaluation system”, by Jerry R. Johanson, ©JR Johanson, 1991.
Arching Index—A tendency of a cohesive material is to plug up the opening of a bin by forming an “arch” over the discharge opening. The arching index is given as a multiple of the discharge opening, so less than 1 is necessary for free flow. Numbers greater than 1 reflect a need to enlarge the opening.
Ratholing Index—A tendency of a cohesive material is to hang up on the sides of a bin while an open hole forms in the center and flow ceases. Rathole indices are also given as a multiple of the discharge opening and a number of less than 1 is necessary for free flow. Numbers greater than 1 mean the bins should be redesigned.
Hopper Index—The maximum angle, measured in degrees from the vertical, that is required for the conical portion of a hopper in order to produce reliable mass flow. A larger number is better.
Chute Index—The minimum angle, measured in degrees from horizontal, required for flow down a chute and to prevent material buildup at impact areas. A smaller number is better. Chute indices may often be close to the angle of repose.
Both hopper and chute indices measurements involve friction over a specified surface and measurements are made using substrates of the material of construction. The substrates used for these tests are 304-2B Stainless Steel, aged carbon steel and Tivar UHMWPE (ultra high molecular weight polyethylene) plastic.

[3] = system: Trametes versicolor (MAD 697); assay: Soil block decay test (AWPA E10-87), white rot; assay type: cell-based; conditions: for Comparison with zinc borate against T. versicolor: after leaching
Text: (§2) Wood flakeboard was manufactured by conventional wood processing techniques, incorporating various borates at a range of concentrations, from 0.5 to 2.0% boric acid equivalent (BAE). Boric acid (H3BO3) equivalent is a commonly used convention for comparing various borates on an equivalent contained-boron basis. For each borate/loading combination, fifteen pounds of aspen (Populus tremuloides) furnish having an average particle size of about 2.5×0.75×0.025 inches, was blended with 0.75 pounds (5%) Rubinate 1840 (product of ICI), a polymeric methylene diphenyl diisocyanate adhesive, 0.11 pounds (0.75%) of Cascowax EW 403HS (product of Borden) and various concentrations of nine test borates. For each borate/loading combination, three 18″×18″ composite boards of 0.5 inch thickness were formed by pressing for 210 seconds at (180 seconds pressure, 30 seconds pressure release) at 204.5° C. (the pressure was kept in excess of 6000 psi during the pressure cycle). Each board was trimmed to 15″×15″ and cut to produce internal bond and analytical/soil block specimens for evaluation. Replicates were cut from the inner portion of the boards. Four internal bond, two leaching panels and twenty analytical/soil block specimens were cut from each board.
as §1
(§3) The soil block test was conducted in accordance with AWPA E10-87, with the exception that soil block dimensions were 1.0″×1.0″×0.5″. The fungi used were Gloeophyllum trabeum (ATCC 11539) for brown rot test and Trametes versicolor (MAD 697) for white rot test. An untreated composite control was run both unleached and leached. Solid southern yellow pine and birch were also run as unleashed controls against G. trabeum and T. versicolor, respectively as a test of fungal vigor.

[4] = system: Gloeophyllum trabeum (ATCC 11539); assay: Soil block decay test (AWPA E10-87), brown rot; assay type: cell-based; conditions: for Comparison with zinc borate against G. trabeum: after leaching
Text: as §2, §1, §3

[5] = target loading 0.5% BAE (0.09% B)
[6] = target loading 1.0% BAE (0.17% B)
[7] = target loading 2.0% BAE (0.35% B)
[8] = leached two weeks, target loading 0.5% BAE (0.09% B)
[9] = leached two weeks, target loading 1.0% BAE (0.17% B)
[10] = leached two weeks, target loading 2.0% BAE (0.35% B)
[11] = unleached aspen flakeboard, target loading 0.5% BAE (0.09% B)
[12] = unleached aspen flakeboard, target loading 1.0% BAE (0.17% B)
[13] = unleached aspen flakeboard, target loading 2.0% BAE (0.35% B)

Compound	Assay % B [1, 5]	Assay % B [1, 6]	Assay % B [1, 7]	Chute Index Plastic [2]	Mean % Wt. Loss T. versicolor [3, 8]	Mean % Wt. Loss T. versicolor [3, 9]	Mean % Wt. Loss T. versicolor [3, 10]	Mean % Wt. Loss T. versicolor [3, 11]	Mean % Wt. Loss T. versicolor [3, 12]	Mean % Wt. Loss T. versicolor [3, 13]	Mean % Wt. Loss G. trabeum [4, 8]	Mean % Wt. Loss G. trabeum [4, 9]	Mean % Wt. Loss G. trabeum [4, 10]	Mean % Wt. Loss G. trabeum [4, 11]	Mean % Wt. Loss G. trabeum [4, 12]	Mean % Wt. Loss G. trabeum [4, 13]	other results
Colemanite [Colemanite (1)]	0.03 % B	0.07 % B	0.19 % B	90 degrees	27.5%	8.4%	2.5%	3.9%	3.7%	2.4%	5.5%	1.5%	1.0%	0.6%	1.0%	1.5%	Hopper Index Stainless Steel ([2]; Glass Grade): 14 degrees; Chute Index Stainless Steel ([2]; Glass Grade): 76 degrees; Hopper Index Plastic ([2]; Glass Grade): 8 degrees; Hopper Index Carbon Steel ([2]; Glass Grade): 3 degrees; Chute Index Carbon Steel ([2]; Glass Grade): 82 degrees; Arching Index ([2]; Glass Grade): 0.7; Ratholing Index ([2]; Glass Grade): 4.7; Comparison with zinc borate against T. versicolor [3]: roughly comparable to zinc borate; Comparison with zinc borate against G. trabeum [4]: roughly comparable to zinc borate
Gowerite	0.04 % B	0.07 % B	0.09 % B	–	24.7%	14.7%	11.8%	5.5%	3.1%	2.6%	7.4%	5.8%	3.1%	0.9%	0.9%	1.3%	–
Ulexite	0.03 % B	0.08 % B	0.11 % B	–	22.3%	11.0%	7.2%	13.9%	3.4%	3.0%	6.6%	1.0%	1.3%	1.4%	0.8%	1.8%	–
O=BOB=O [Boric Oxide (4m), Boric Oxide, reference compound]	0.02 % B	0.04 % B	0.09 % B	–	34.3%	29.5%	9.5%	7.5%	9.0%	2.9%	15.5%	7.4%	3.0%	2.6%	1.4%	1.7%	–
Zinc Borate [reference compound]	0.05 % B	0.10 % B	0.23 % B	58 degrees	22.9%	7.0%	2.0%	8.3%	2.9%	1.6%	2.3%	0.9%	0.8%	0.9%	0.8%	1.0%	Hopper Index Stainless Steel [2]: 13 degrees; Chute Index Stainless Steel [2]: 38 degrees; Hopper Index Plastic [2]: 13 degrees; Hopper Index Carbon Steel [2]: 12 degrees; Chute Index Carbon Steel [2]: 44 degrees; Arching Index [2]: 0.5; Ratholing Index [2]: 2.9
Colemanite [Colemanite (2)]	0.04 % B	0.08 % B	0.18 % B	90 degrees	19.9%	5.1%	2.2%	5.1%	2.3%	2.2%	3.4%	1.6%	1.3%	0.8%	0.6%	1.1%	Hopper Index Stainless Steel ([2]; listed as Colemanite F): 1.3 degrees; Chute Index Stainless Steel ([2]; listed as Colemanite F): 90 degrees; Hopper Index Plastic ([2]; listed as Colemanite F): 4.2 degrees; Hopper Index Carbon Steel ([2]; listed as Colemanite F): 2.7 degrees; Chute Index Carbon Steel ([2]; listed as Colemanite F): 90 degrees; Arching Index ([2]; listed as Colemanite F): 0.4; Ratholing Index ([2]; listed as Colemanite F): 3.9; Comparison with zinc borate against T. versicolor [3]: roughly comparable to zinc borate; Comparison with zinc borate against G. trabeum [4]: roughly comparable to zinc borate
O=BOB=O [Boric Oxide (60m), Boric Oxide, reference compound]	0.02 % B	0.03 % B	0.07 % B	–	50.4%	35.8%	23.2%	7.6%	3.6%	3.7%	8.0%	6.0%	3.3%	1.6%	0.7%	1.1%	–
Hydroboracite	0.05 % B	0.06 % B	0.13 % B	–	27.1%	21.0%	4.5%	2.8%	3.6%	2.2%	9.4%	4.2%	1.8%	1.1%	1.0%	2.2%	–
